Key:
[1] = molecular target: T1, Potassium channel subfamily K member 2 (Homo sapiens, UniProt O95069); assay: Activation of human TREK1 by thallium flux mobilization assay
T1 sequence (O95069 whole entry): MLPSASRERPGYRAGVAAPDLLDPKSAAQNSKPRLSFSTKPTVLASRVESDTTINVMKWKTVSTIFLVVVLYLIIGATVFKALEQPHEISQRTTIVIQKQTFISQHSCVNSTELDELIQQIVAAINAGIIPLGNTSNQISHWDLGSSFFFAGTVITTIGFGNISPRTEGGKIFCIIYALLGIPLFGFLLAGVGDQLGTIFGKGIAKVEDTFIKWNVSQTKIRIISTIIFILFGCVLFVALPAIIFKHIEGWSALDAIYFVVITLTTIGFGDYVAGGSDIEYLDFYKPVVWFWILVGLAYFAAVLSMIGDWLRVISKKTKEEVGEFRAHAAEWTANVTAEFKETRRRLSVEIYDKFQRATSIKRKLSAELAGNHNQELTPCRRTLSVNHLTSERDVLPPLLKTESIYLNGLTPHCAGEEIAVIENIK

[2] = Fraction unbound in rat plasma; type: ADME, cell-free
[3] = Half life in rat at 0.05 mg/kg, iv administered as cassette dose; type: ADME, organism-based; details: in vivo
[4] = molecular target: T2, Potassium channel subfamily K member 10 (Homo sapiens, UniProt P57789); assay: Activation of human TREK2 by thallium flux mobilization assay
T2 sequence (P57789 whole entry): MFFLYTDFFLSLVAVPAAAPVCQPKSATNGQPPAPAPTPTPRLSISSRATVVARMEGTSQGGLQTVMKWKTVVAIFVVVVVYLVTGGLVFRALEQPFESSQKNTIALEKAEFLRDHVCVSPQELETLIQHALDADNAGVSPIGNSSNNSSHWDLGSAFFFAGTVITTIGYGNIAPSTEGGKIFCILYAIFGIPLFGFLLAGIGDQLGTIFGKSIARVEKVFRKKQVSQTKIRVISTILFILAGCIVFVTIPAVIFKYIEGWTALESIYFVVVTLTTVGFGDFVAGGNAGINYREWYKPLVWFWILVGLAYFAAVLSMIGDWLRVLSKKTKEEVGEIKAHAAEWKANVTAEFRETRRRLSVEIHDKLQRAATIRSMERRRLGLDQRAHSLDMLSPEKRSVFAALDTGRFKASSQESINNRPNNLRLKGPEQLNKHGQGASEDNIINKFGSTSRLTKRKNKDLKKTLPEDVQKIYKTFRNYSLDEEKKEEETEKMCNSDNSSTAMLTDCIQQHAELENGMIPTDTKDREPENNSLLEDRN

[5] = molecular target: T3, Potassium channel subfamily K member 2 (Homo sapiens) (UniProt O95069); assay: Activation of human TREK1 at 30 uM by thallium flux mobilization assay relative to control; details: filed as activator
T3 sequence (whole entry): T1 sequence (O95069 whole entry)

[6] = molecular target: T4, Potassium channel subfamily K member 10 (Homo sapiens) (UniProt P57789); assay: Activation of human TREK2 at 30 uM by thallium flux mobilization assay relative to control; details: filed as activator
T4 sequence (whole entry): T2 sequence (P57789 whole entry)

[7] = Fraction unbound in human plasma; type: ADME, cell-free

EC50 [1]: 5.2 µM | fraction unbound [2]: 0.001 | half-life [3]: 3 min | EC50 [4]: 7.7 µM | Activity [5]: 109% | Activity [6]: 133% | fraction unbound [7]: < 0.001
Compound: c1ccc(-c2nnn[nH]2)c(Nc2cccc3c2CCCC3)c1
